Results published in article PMC6017193, “Structure-Based Discovery of a Series of 5H-Pyrrolo[2,3-b]pyrazine FGFR Kinase Inhibitors” (Molecules : A Journal of Synthetic Chemistry and Natural …, 2018).

Molecular target: T1, FGFR1 (Homo sapiens, UniProt P11362)
T1 construct: purchased Millipore
Experiment: ELISA kinase assay, FGFR1 enzymatic activity
Type: biochemical
Settings: for inhibition at 10 µM / inhibition at 5 µM / inhibition at 0.01 µM / inhibition at 0.1 µM / inhibition at 1 µM / FGFR1 Inhibition (%): mean of two separate experiments
Method: The effects of compounds on the activities of indicated (FGFR1 and c-Met) kinases were determined using enzyme-linked immunosorbent assays (ELISAs) with purified recombinant proteins. Briefly, 20 μg/mL poly (Glu, Tyr)4:1 (Sigma, St. Louis, MO, USA) was precoated in 96-well plates as a substrate. A 50-μL aliquot of 10 μmol/L ATP solution diluted in kinase reaction buffer (50 mmol/L HEPES (pH 7.4), 50 mmol/L MgCl2, 0.5 mmol/L MnCl2, 0.2 mmol/L Na3VO4, and 1 mmol/L DTT) was added to each well; 1 μL of various concentrations of compounds diluted in 1% DMSO (v/v) (Sigma) were then added to each reaction well. DMSO (1%, v/v) was used as the negative control. The kinase reaction was initiated by the addition of purified tyrosine kinase proteins FGFR1 (Millipore, Darmstadt, Germany) or c-Met (Millipore) diluted in 49 μL of kinase reaction buffer. After incubation for 60 min at 37 °C, the plate was washed three times with phosphate-buffered saline (PBS) containing 0.1% Tween 20 (T-PBS). Anti-phosphotyrosine (PY99) antibody (Sanra Cruz, Dallas, TX, USA) (100 μL; 1:500, diluted in 5 mg/mL bovine serum albumin (BSA) T-PBS) was then added. After a 30-min incubation at 37 °C, the plate was washed three times, and 100 μL of horseradish peroxidase-conjugated goat anti-mouse IgG (Calbiochem, Shanghai, China) (1:2000, diluted in 5 mg/mL BSA T-PBS) was added. The plate was then incubated at 37 °C for 30 min, and washed three times. A 100-μL aliquot of a solution containing 0.03% H2O2 and 2 mg/mL o-phenylenediamine in 0.1 mol/L citrate buffer (pH 5.5) was added. The reaction was terminated by the addition of 50 μL of 2 mol/L H2SO4 as the color changed, and the plate was analyzed using a multi-well spectrophotometer (SpectraMAX 190, Molecular Devices, Palo Alto, CA, USA) at 490 nm. The inhibition rate (%) was calculated using the following equation:IR = [1 − (A490/A490control)] × 100%.(1) where IR, A490, and A490control are the inhibition rate, the absorbance value of the tested compound at 490 nm, and the absorbance value of the negative control compound at 490 nm, respectively. The IC50 values were calculated from the inhibition curves in two separate experiments.

T1 sequence (P11362 22-822): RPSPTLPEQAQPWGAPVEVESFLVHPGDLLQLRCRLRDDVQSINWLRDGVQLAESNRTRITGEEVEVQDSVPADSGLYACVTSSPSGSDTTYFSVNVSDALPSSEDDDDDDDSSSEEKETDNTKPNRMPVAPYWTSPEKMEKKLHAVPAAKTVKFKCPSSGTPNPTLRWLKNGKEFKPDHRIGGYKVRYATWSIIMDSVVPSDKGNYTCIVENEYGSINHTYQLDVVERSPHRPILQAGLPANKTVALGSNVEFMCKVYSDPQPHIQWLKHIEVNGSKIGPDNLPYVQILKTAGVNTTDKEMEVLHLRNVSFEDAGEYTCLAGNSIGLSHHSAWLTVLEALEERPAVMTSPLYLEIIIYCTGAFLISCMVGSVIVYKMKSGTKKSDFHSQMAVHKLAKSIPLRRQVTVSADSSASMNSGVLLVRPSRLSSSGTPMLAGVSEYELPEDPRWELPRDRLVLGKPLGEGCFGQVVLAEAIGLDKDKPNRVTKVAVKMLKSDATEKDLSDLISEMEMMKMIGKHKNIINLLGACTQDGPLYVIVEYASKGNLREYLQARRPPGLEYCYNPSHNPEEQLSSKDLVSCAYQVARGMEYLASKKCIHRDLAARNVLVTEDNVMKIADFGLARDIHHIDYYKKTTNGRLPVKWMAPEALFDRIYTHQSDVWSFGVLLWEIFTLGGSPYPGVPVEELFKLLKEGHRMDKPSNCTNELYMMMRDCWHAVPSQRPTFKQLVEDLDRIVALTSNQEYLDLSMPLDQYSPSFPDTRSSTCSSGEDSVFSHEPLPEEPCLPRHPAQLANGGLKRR

## Cn1cc(-c2cnc3cnn(S(=O)(=O)c4c(Cl)nc5sccn45)c3c2)cn1 [Compound 5, 6-chloro-5-((6-(1-methyl-1H-pyrazol-4-yl)-1H-pyrazolo[4,3-b]pyridin-1-yl)sulfonyl)imidazo[2,1-b]thiazole]
  inhibition at 10 µM: > 50%

## Cn1cc(-c2cnc3ccn(S(=O)(=O)c4c(Cl)nc5sccn45)c3n2)cn1 [Compound 9, 6-Chloro-5-((3-(1-methyl-1H-pyrazol-4-yl)-5H-pyrrolo[2,3-b]pyrazin-5-yl)sulfonyl)imidazo[2,1-b]thiazole]
  inhibition at 5 µM: 83.7%
  inhibition at 10 µM: 92.5%

## Cn1cc(-c2cnc3ccn(S(=O)(=O)c4cnn5cccnc45)c3n2)cn1 [Compound 10, 3-(1-Methyl-1H-pyrazol-4-yl)-5-(pyrazolo[1,5-a]pyrimidin-3-ylsulfonyl)-5H-pyrrolo[2,3-b]pyrazine]
  inhibition at 5 µM: 77%
  inhibition at 10 µM: 91%

## Cn1cnc(S(=O)(=O)n2ccc3ncc(-c4cnn(C)c4)nc32)c1 [Compound 11, 5-((1-Methyl-1H-imidazol-4-yl)sulfonyl)-3-(1-methyl-1H-pyrazol-4-yl)-5H-pyrrolo[2,3-b]pyrazine]
  inhibition at 5 µM: 58.1%
  inhibition at 10 µM: 86%

## Cn1cc(-c2cnc3ccn(S(=O)(=O)c4cn(CCF)cn4)c3n2)cn1 [Compound 12, 5-((1-(2-Fluoroethyl)-1H-imidazol-4-yl)sulfonyl)-3-(1-methyl-1H-pyrazol-4-yl)-5H-pyrrolo[2,3-b]pyrazine]
  inhibition at 5 µM: 68.9%
  inhibition at 10 µM: 89%

## O=S(=O)(c1cn(CCF)cn1)n1ccc2ncc(-c3cnn(C4CC4)c3)nc21 [Compound 14, 3-(1-Cyclopropyl-1H-pyrazol-4-yl)-5-((1-(2-fluoroethyl)-1H-imidazol-4-yl)sulfonyl)-5H-pyrrolo[2,3-b]pyrazine]
0.01 μM (10 nM)
  inhibition at 0.01 µM: 4.7%
0.1 μM
  inhibition at 0.1 µM: 2.2%
1 μM
  inhibition at 1 µM: 2.8%
FGFR1 enzymatic activity, Table 3
  FGFR1 activity (in words): lost the FGFR1 activity

## CC(=O)n1cc(-c2cnc3ccn(S(=O)(=O)c4cn(CCF)cn4)c3n2)cn1 [Compound 15, 1-(4-(5-((1-(2-fluoroethyl)-1H-imidazol-4-yl)sulfonyl)-5H-pyrrolo[2,3-b]pyrazin-3-yl)-1H-pyrazol-1-yl)ethan-1-one]
0.01 μM (10 nM)
  inhibition at 0.01 µM: 35.9%
0.1 μM
  inhibition at 0.1 µM: 25.9%
1 μM
  inhibition at 1 µM: 70.9%

## CCC(=O)n1cc(-c2cnc3ccn(S(=O)(=O)c4cn(CCF)cn4)c3n2)cn1 [Compound 16, 1-(4-(5-((1-(2-Fluoroethyl)-1H-imidazol-4-yl)sulfonyl)-5H-pyrrolo[2,3-b]pyrazin-3-yl)-1H-pyrazol-1-yl)propan-1-one]
0.01 μM (10 nM)
  inhibition at 0.01 µM: 15.1%
0.1 μM
  inhibition at 0.1 µM: 55.8%
1 μM
  inhibition at 1 µM: 94.6%

## CC(=O)Cn1cc(-c2cnc3ccn(S(=O)(=O)c4cn(CCF)cn4)c3n2)cn1 [Compound 18, 1-(4-(5-((1-(2-Fluoroethyl)-1H-imidazol-4-yl)sulfonyl)-5H-pyrrolo[2,3-b]pyrazin-3-yl)-1H-pyrazol-1-yl)propan-2-one]
0.01 μM (10 nM)
  inhibition at 0.01 µM: 24.6%
0.1 μM
  inhibition at 0.1 µM: 13.3%
1 μM
  inhibition at 1 µM: 22.6%

## COC(=O)Cn1cc(-c2cnc3ccn(S(=O)(=O)c4cn(CCF)cn4)c3n2)cn1 [Compound 19, Methyl 2-(4-(5-((1-(2-fluoroethyl)-1H-imidazol-4-yl)sulfonyl)-5H-pyrrolo[2,3-b]pyrazin-3-yl)-1H-pyrazol-1-yl)acetate]
0.01 μM (10 nM)
  inhibition at 0.01 µM: 7.3%
0.1 μM
  inhibition at 0.1 µM: 12%
1 μM
  inhibition at 1 µM: 40.7%

## CCOC(=O)Cn1cc(-c2cnc3ccn(S(=O)(=O)c4cn(CCF)cn4)c3n2)cn1 [Compound 20, Ethyl 2-(4-(5-((1-(2-fluoroethyl)-1H-imidazol-4-yl)sulfonyl)-5H-pyrrolo[2,3-b]pyrazin-3-yl)-1H-pyrazol-1-yl)acetate]
0.01 μM (10 nM)
  inhibition at 0.01 µM: 7.2%
0.1 μM
  inhibition at 0.1 µM: 5.4%
1 μM
  inhibition at 1 µM: 49.6%

## CNC(=O)Cn1cc(-c2cnc3ccn(S(=O)(=O)c4cn(CCF)cn4)c3n2)cn1 [Compound 21, 2-(4-(5-((1-(2-Fluoroethyl)-1H-imidazol-4-yl)sulfonyl)-5H-pyrrolo[2,3-b]pyrazin-3-yl)-1H-pyrazol-1-yl)-N-methylacetamide]
0.01 μM (10 nM)
  inhibition at 0.01 µM: 12.5%
0.1 μM
  inhibition at 0.1 µM: 14.9%
1 μM
  inhibition at 1 µM: 65.6%

## CN(C)C(=O)Cn1cc(-c2cnc3ccn(S(=O)(=O)c4cn(CCF)cn4)c3n2)cn1 [Compound 22, 2-(4-(5-((1-(2-Fluoroethyl)-1H-imidazol-4-yl)sulfonyl)-5H-pyrrolo[2,3-b]pyrazin-3-yl)-1H-pyrazol-1-yl)-N,N-dimethylacetamide]
0.01 μM (10 nM)
  inhibition at 0.01 µM: 0.4%
0.1 μM
  inhibition at 0.1 µM: 2.5%
1 μM
  inhibition at 1 µM: 15.3%

## CS(=O)(=O)n1cc(-c2cnc3ccn(S(=O)(=O)c4cn(CCF)cn4)c3n2)cn1 [Compound 23, 5-((1-(2-Fluoroethyl)-1H-imidazol-4-yl)sulfonyl)-3-(1-(methylsulfonyl)-1H-pyrazol-4-yl)-5H-pyrrolo[2,3-b]pyrazine]
0.01 μM (10 nM)
  inhibition at 0.01 µM: 20.9%
0.1 μM
  inhibition at 0.1 µM: 37.1%
1 μM
  inhibition at 1 µM: 82.3%

## O=S(=O)(c1cn(CCF)cn1)n1ccc2ncc(-c3cnn(S(=O)(=O)C4CC4)c3)nc21 [Compound 24, 3-(1-(Cyclopropylsulfonyl)-1H-pyrazol-4-yl)-5-((1-(2-fluoroethyl)-1H-imidazol-4-yl)sulfonyl)-5H-pyrrolo[2,3-b]pyrazine]
0.01 μM (10 nM)
  inhibition at 0.01 µM: 16.6%
0.1 μM
  inhibition at 0.1 µM: 13.5%
1 μM
  inhibition at 1 µM: 29.5%

## COC(=O)C(C(=O)OC)n1cc(-c2cnc3ccn(S(=O)(=O)c4cn(CCF)cn4)c3n2)cn1 [Compound 25, Dimethyl 2-(4-(5-((1-(2-fluoroethyl)-1H-imidazol-4-yl)sulfonyl)-5H-pyrrolo[2,3-b]pyrazin-3-yl)-1H-pyrazol-1-yl)malonate]
0.01 μM (10 nM)
  inhibition at 0.01 µM: 23.5%
0.1 μM
  inhibition at 0.1 µM: 46.5%
1 μM
  inhibition at 1 µM: 83%

## CCOC(=O)C(C(=O)OCC)n1cc(-c2cnc3ccn(S(=O)(=O)c4cn(CCF)cn4)c3n2)cn1 [Compound 26, Diethyl 2-(4-(5-((1-(2-fluoroethyl)-1H-imidazol-4-yl)sulfonyl)-5H-pyrrolo[2,3-b]pyrazin-3-yl)-1H-pyrazol-1-yl)malonate]
0.01 μM (10 nM)
  inhibition at 0.01 µM: 26.8%
0.1 μM
  inhibition at 0.1 µM: 33.6%
1 μM
  inhibition at 1 µM: 69%

## CC(C)n1cnc(S(=O)(=O)n2ccc3ncc(-c4cn[nH]c4)nc32)c1 [Compound 30]
0.01 μM (10 nM)
  inhibition at 0.01 µM: 40.4%
0.1 μM
  inhibition at 0.1 µM: 77.1%
1 μM
  inhibition at 1 µM: 94.5%

## CC(C)Cn1cnc(S(=O)(=O)n2ccc3ncc(-c4cn[nH]c4)nc32)c1 [Compound 31, 5-((1-Isobutyl-1H-imidazol-4-yl)sulfonyl)-3-(1H-pyrazol-4-yl)-5H-pyrrolo[2,3-b]pyrazine]
0.01 μM (10 nM)
  inhibition at 0.01 µM: 13.9%
0.1 μM
  inhibition at 0.1 µM: 19.9%
1 μM
  inhibition at 1 µM: 37.1%

## O=S(=O)(c1cn(C2CCCC2)cn1)n1ccc2ncc(-c3cn[nH]c3)nc21 [Compound 32, 5-((1-Cyclopentyl-1H-imidazol-4-yl)sulfonyl)-3-(1H-pyrazol-4-yl)-5H-pyrrolo[2,3-b]pyrazine]
0.01 μM (10 nM)
  inhibition at 0.01 µM: 4.9%
0.1 μM
  inhibition at 0.1 µM: 20.1%
1 μM
  inhibition at 1 µM: 71.7%

## CNC(=O)Cn1cnc(S(=O)(=O)n2ccc3ncc(-c4cn[nH]c4)nc32)c1 [Compound 33, 2-(4-((3-(1H-Pyrazol-4-yl)-5H-pyrrolo[2,3-b]pyrazin-5-yl)sulfonyl)-1H-imidazol-1-yl)-N-methylacetamide]
0.01 μM (10 nM)
  inhibition at 0.01 µM: 19.9%
0.1 μM
  inhibition at 0.1 µM: 43.8%
1 μM
  inhibition at 1 µM: 82.4%

## O=S(=O)(c1cnn2cccnc12)n1ccc2ncc(-c3cn[nH]c3)nc21 [Compound 34, 3-(1H-Pyrazol-4-yl)-5-(pyrazolo[1,5-a]pyrimidin-3-ylsulfonyl)-5H-pyrrolo[2,3-b]pyrazine]
0.1 μM
  inhibition at 0.1 µM: 26.4%
1 μM
  inhibition at 1 µM: 73.9%

## O=S(=O)(c1cnc2cccnn12)n1ccc2ncc(-c3cn[nH]c3)nc21 [Compound 35, 5-(Imidazo[1,2-b]pyridazin-3-ylsulfonyl)-3-(1H-pyrazol-4-yl)-5H-pyrrolo[2,3-b]pyrazine]
0.01 μM (10 nM)
  inhibition at 0.01 µM: 31.8%
0.1 μM
  inhibition at 0.1 µM: 68.7%
1 μM
  inhibition at 1 µM: 90.6%

## Methyl 2-(4-(5-((1-(2-fluoroethyl)-1H-imidazol-4-yl)sulfonyl)-5H-pyrrolo[2,3-b]pyrazin-3-yl)-1H-pyrazol-1-yl)acetate [Compound 17]
0.01 μM (10 nM)
  FGFR1 Inhibition (%): −3.3%
0.1 μM
  FGFR1 Inhibition (%): 15.6%
1 μM
  FGFR1 Inhibition (%): 56.8%
